Test results taken from patent US20080200448A1, “New Pyridine Analogues VIII 518” (ASTRAZENECA AB, priority 2007, published 2008).

target: T1, P2Y12 receptor (Homo sapiens, UniProt Q9H244); experiment: Functional inhibition of 2-Me-S-ADP induced P2Y12 signalling (35S-GTPγS binding, cell membranes); assay type: biochemical; settings: 35S-GTPγS assay, membranes, EC80 concentration of 2-methyl-thio-adenosine diphosphate, 30° C. for 45 min; read-out: GTPγS (IC50 μM)
T1 construct: expressed in transfected cells; host or cells: CHO cells (membrane preparation)
T1 sequence (Q9H244 whole entry): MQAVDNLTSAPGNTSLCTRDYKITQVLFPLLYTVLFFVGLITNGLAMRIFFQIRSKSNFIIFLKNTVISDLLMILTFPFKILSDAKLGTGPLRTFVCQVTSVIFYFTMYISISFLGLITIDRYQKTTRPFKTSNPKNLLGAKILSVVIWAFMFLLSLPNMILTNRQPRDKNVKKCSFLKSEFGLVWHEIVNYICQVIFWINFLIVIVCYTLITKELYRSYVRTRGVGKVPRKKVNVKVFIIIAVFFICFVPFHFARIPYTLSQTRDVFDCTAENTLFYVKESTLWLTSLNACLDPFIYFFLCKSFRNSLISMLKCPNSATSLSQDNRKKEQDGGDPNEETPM
Experimental: Functional inhibition of- the P2Y12 receptor can be measured by in vitro assays using cell membranes from P2Y12 transfected CHO-cells, the methodology is indicated below.
Functional inhibition of 2-Me-S-ADP induced P2Y12 signalling: 5 μg of membranes were diluted in 200 μl of 200 mM NaCl, 1 mM MgCl2, 50 mM HEPES (pH 7.4), 0.01% BSA, 30 μg/ml saponin and 10 μM GDP. To this was added an EC80 concentration of agonist (2-methyl-thio-adenosine diphosphate), the required concentration of test compound and 0.1 μCi ^35S-GTPγS. The reaction was allowed to proceed at 30° C. for 45 min. Samples were then transferred on to GF/B filters using a cell harvester and washed with wash buffer (50 mM Tris (pH 7.4), 5 mM MgCl2, 50 mM NaCl). Filters were then covered with scintilant and counted for the amount of ^35S-GTPγS retained by the filter. Maximum activity was that determined in the presence of the agonist and minimum activity in the absence of the agonist following subtraction of the value determined for non-specific activity. The effect of compounds at various concentrations was plotted according to the equation
y=A+((B−A)/(1+((C/x)̂D)))
and IC50 estimated where A is the bottom plateau of the curve i.e. the final minimum y value B is the top of the plateau of the curve i.e. the final maximum y value C is the x value at the middle of the curve. This represents the log EC50 value when A+B=100 D is the slope factor. x is the original known x values. Y is the original known y values.

SMILES | IC50 [µM]
CCOC(=O)c1cc(C#N)c(N2CCC(C(=O)NS(=O)(=O)Cc3ccccc3)CC2)nc1OCCC#N [Example 17, Ethyl 6-{4-[(benzylsulfonyl)carbamoyl]piperidin-1-yl}-5-cyano-2-(2-cyanoethoxy)nicotinate] | 0.027
CCOC(=O)c1cc(C#N)c(N2CCC(C(=O)NS(=O)(=O)CC3CCCCC3)CC2)nc1CN1CCCCC1=O [Example 61, Ethyl 5-cyano-6-(4-{[(cyclohexylmethyl)sulfonyl]carbamoyl}piperidin-1-yl)-2-[(2-oxopiperidin-1-yl)methyl]nicotinate] | 0.061
CCOC(=O)c1cc(C#N)c(N2CC(C(=O)NS(=O)(=O)Cc3ccccc3)C2)nc1CS(C)(=O)=O [Example 10, Ethyl 6-{3-[(benzylsulfonyl)carbamoyl]azetidin-1-yl}-5-cyano-2-[(methylsulfonyl)methyl]nicotinate] | 0.243
CC(C)OC(=O)c1cc(C#N)c(N2CCC(C(=O)NS(=O)(=O)Cc3ccc(F)cc3Cl)CC2)nc1CN1CCCC1=O [Example 49, Isopropyl 6-(4-{[(2-chloro-4-fluorobenzyl)sulfonyl]carbamoyl}piperidin-1-yl)-5-cyano-2-[(2-oxopyrrolidin-1-yl)methyl]nicotinate] | 0.066
CCOC(=O)c1cc(Cl)c(N2CCC(C(=O)NS(=O)(=O)Cc3ccccc3)CC2)nc1SCCNC(C)=O [Example 105, Ethyl 2-[(2-acetamidoethyl)thio]-6-{4-[(benzylsulfonyl)carbamoyl]piperidin-1-yl}-5-chloronicotinate] | 0.048
CCOC(=O)CSCc1nc(N2CCC(C(=O)NS(=O)(=O)Cc3ccccc3)CC2)c(C#N)cc1C(=O)OCC [Example 122, Ethyl 6-{4-[(benzylsulfonyl)carbamoyl]piperidin-1-yl}-5-cyano-2-{[(2-ethoxy-2-oxoethyl)thio]methyl}nicotinate] | 0.077
CCOC(=O)c1cc(Br)c(N2CCC(C(=O)NS(=O)(=O)Cc3ccccc3)CC2)nc1CN1CCCC1=O [Example 84, Ethyl 6-{4-[(benzylsulfonyl)carbamoyl]piperidin-1-yl}-5-bromo-2-[(2-oxopyrrolidin-1-yl)methyl]nicotinate] | 0.031
CCSC(=O)c1cc(C#N)c(N2CCC(C(=O)NS(=O)(=O)Cc3ccc(C)cc3)CC2)nc1CN1CCCC1=O [Example 98, S-Ethyl 5-cyano-6-(4-{[(4-methylbenzyl)sulfonyl]carbamoyl}piperidin-1-yl)-2-[(2-oxopyrrolidin-1-yl)methyl]pyridine-3-carbothioate] | 4.53
CCOC(=O)c1cc(C#N)c(N2CCC(C(=O)NS(=O)(=O)Cc3ccccc3)CC2)nc1CSCC(=O)N(C)C [Example 123, Ethyl 6-{4-[(benzylsulfonyl)carbamoyl]piperidin-1-yl}-5-cyano-2-({[2-(dimethylamino)-2-oxoethyl]thio}methyl)nicotinate] | 0.057
CCOC(=O)c1cc(C#N)c(N2CCC(C(=O)NS(=O)(=O)Cc3ccc([Si](C)(C)C)cc3)CC2)nc1CN1CCCC1=O [Example 100, Ethyl 5-cyano-2-[(2-oxopyrrolidin-1-yl)methyl]-6-[4-({[4-(trimethylsilyl)benzyl]sulfonyl}carbamoyl)piperidin-1-yl]nicotinate] | 0.138
CCOC(=O)c1cc(C#N)c(N2CCC(C(=O)NS(=O)(=O)Cc3ccccc3)CC2)nc1CSc1nccn1C [Example 118, Ethyl 6-{4-[(benzylsulfonyl)carbamoyl]piperidin-1-yl}-5-cyano-2-{[(1-methyl-1H-imidazol-2-yl)thio]methyl}nicotinate] | 0.052
CCOC(=O)c1cc(C#N)c(N2CCC(C(=O)NS(=O)(=O)Cc3ccc(F)cc3)CC2)nc1CN1CCCCC1=O [Example 62, Ethyl 5-cyano-6-(4-{[(4-fluorobenzyl)sulfonyl]carbamoyl}piperidin-1-yl)-2-[(2-oxopiperidin-1-yl)methyl]nicotinate] | 0.148
CCOC(=O)c1cc(C#N)c(N2CCC(C(=O)NS(=O)(=O)Cc3ccccc3)CC2)nc1OCC(=O)O [Example 24, {[6-{4-[(Benzylsulfonyl)carbamoyl]piperidin-1-yl}-5-cyano-3-(ethoxycarbonyl)pyridin-2-yl]oxy}acetic acid] | 0.025
CCOC(=O)c1cc(C#N)c(N2CCC(C(=O)NS(=O)(=O)Cc3ccccc3)CC2)nc1CN1CCCCC1=O [Example 56, Ethyl 6-{4-[(benzylsulfonyl)carbamoyl]piperidin-1-yl}-5-cyano-2-[(2-oxopiperidin-1-yl)methyl]nicotinate] | 0.03
CCOC(=O)CSc1nc(N2CCC(C(=O)NS(=O)(=O)Cc3ccc(Cl)cc3Cl)CC2)c(C#N)cc1C(=O)OCC [Example 109, Ethyl 5-cyano-6-(4-{[(2,4-dichlorobenzyl)sulfonyl]carbamoyl}piperidin-1-yl)-2-[(2-ethoxy-2-oxoethyl)thio]nicotinate] | 0.062

Results, then the compound that gave them:

IC50 [µM] | SMILES
0.016 | CCOC(=O)c1cc(C#N)c(N2CCC(C(=O)NS(=O)(=O)Cc3ccccc3)CC2)nc1SCCO [Example 19, Ethyl 6-{4-[(benzylsulfonyl)carbamoyl]piperidin-1-yl}-5-cyano-2-[(2-hydroxyethyl)thio]nicotinate]
0.018 | CCOC(=O)c1cc(C#N)c(N2CCC(C(=O)NS(=O)(=O)Cc3ccc(F)cc3Cl)CC2)nc1CN1CCCC1=O [Example 43, Ethyl 6-(4-{[(2-chloro-4-fluorobenzyl)sulfonyl]carbamoyl}piperidin-1-yl)-5-cyano-2-[(2-oxopyrrolidin-1-yl)methyl]nicotinate]
0.017 | CCOC(=O)c1cc(C#N)c(N2CCC(C(=O)NS(=O)(=O)Nc3ccc(F)cc3)CC2)nc1CN1CCCC1=O [Example 77, Ethyl 5-cyano-6-[4-({[(4-fluorophenyl)amino]sulfonyl}carbamoyl)piperidin-1-yl]-2-[(2-oxopyrrolidin-1-yl)methyl]nicotinate]
0.0081 | CCOC(=O)c1cc(C#N)c(N2CCC(C(=O)NS(=O)(=O)Cc3ccccc3)CC2)nc1SCC(=O)O [Example 26, {[6-{4-[(Benzylsulfonyl)carbamoyl]piperidin-1-yl}-5-cyano-3-(ethoxycarbonyl)pyridin-2-yl]thio}acetic acid]
0.017 | CCOC(=O)c1cc(C#N)c(N2CCC(C(=O)NS(=O)(=O)Cc3ccccc3)CC2)nc1OCCCC(C)=O [Example 121, Ethyl 6-{4-[(benzylsulfonyl)carbamoyl]piperidin-1-yl}-5-cyano-2-[(4-oxopentyl)oxy]nicotinate]
0.025 | CCOC(=O)c1cc(C#N)c(N2CCC(C(=O)NS(=O)(=O)Cc3ccccc3)CC2)nc1CN=[N+]=[N-] [Example 11, Ethyl 2-(azidomethyl)-6-{4-[(benzylsulfonyl)carbamoyl]piperidin-1-yl}-5-cyanonicotinate]
0.0033 | CCOC(=O)c1cc(C#N)c(N2CCC(C(=O)NS(=O)(=O)Cc3ccc(F)cc3F)CC2)nc1CN1CCCC1=O [Example 38, Ethyl 5-cyano-6-(4-{[(2,4-difluorobenzyl)sulfonyl]carbamoyl}piperidin-1-yl)-2-[(2-oxopyrrolidin-1-yl)methyl]nicotinate]
0.017 | CCOC(=O)c1cc(C#N)c(N2CCC(C(=O)NS(=O)(=O)Cc3ccccc3)CC2)nc1CN1C(=O)CCC1=O [Example 15, Ethyl 6-{4-[(benzylsulfonyl)carbamoyl]piperidin-1-yl}-5-cyano-2-[(2,5-dioxopyrrolidin-1-yl)methyl]nicotinate]
